molecular target: T1, HIV-1 protease wild type protein (Human immunodeficiency virus type 1 group M subtype B, UniProt P04585); assay: Biochemical protease assay
T1 construct: HIV-1 protease wild type protein; purchased AscoProt Biotech, Prague, Czech Republic
Description: For the determination of their in vitro activity on HIV proteases the test substances are dissolved in DMSO and serially diluted. In each case 0.5 μl of substance dilution, 20 μl of 0.2-1 nM HIV-1 protease wild type or mutant protein (e.g., multiresistant isolate “35513”: L10I, I15V, L19I, K20R, E35D, M36I, R41K, I54V, L63P, H69K, A71V, T74P, I84V, L89M, L90M, 193L, AscoProt Biotech, Prague, Czech Republic) in buffer 1 (50 mM sodium acetate pH 4.9, 0.02% BSA, 0.1 mM EDTA, 0.5 mM DTT) and 20 μl of 8 μM substrate (M1865 from Bachem, Bubendorf, Switzerland; Matayoshi et al., Science 1990, 247, 954-8) in buffer 1 are added successively to a 384 well microtiter plate (Greiner, Frickenhausen, Germany), incubated for 60-180 minutes at 32° C. and the fluorescence is measured (e.g., Tecan Safire, 340 nm extinction, 520 nm emission). IC50 values are determined by graphical plotting the substance concentration against the percentage inhibition.

Row | Compound | IC50 [µM]
1 | Cc1cc(-c2ccc([N+](=O)[O-])cc2)c(Cl)cc1C1=C(O)C2(CCCCC2)OC1=O [Example 47, 3-(2-chloro-5-methyl-4′-nitrobiphenyl-4-yl)-4-hydroxy-1-oxaspiro[4.5]dec-3-en-2-one] | ≤ 0.1
2 | Cc1ccccc1CNC(=O)CN1CCCC2(C1)OC(=O)C(c1cc(Cl)c(-c3cccc(S(C)(=O)=O)c3)cc1C)=C2O (stereo not shown) [Example 132] | ≤ 0.1
3 | COc1cccc(-c2ccc(C3=C(O)C4(CCCCC4)OC3=O)c(C)c2)c1 [Example 60] | ≤ 0.1
4 | Cc1cc(-c2cccc(S(C)(=O)=O)c2)c(Cl)cc1C1=C(O)C2(CCCN(C(=O)/C=C\c3c[nH]cn3)C2)OC1=O (stereo not shown) [Example 123] | ≤ 0.1
5 | Cc1cc(-c2ccc(Cl)cc2)c(C)cc1C1=C(O)C2(CCCCCC2)OC1=O [Example 10] | ≤ 0.1
6 | COc1cccc(-c2cc(Cl)c(C3=C(O)C4(CCCCC4)OC3=O)cc2C)c1 [Example 69] | ≤ 0.1
7 | Cc1cc(-c2cc(C)c(C3=C(O)C4(CCCCC4)OC3=O)cc2Cl)ccc1F [Example 34] | ≤ 0.1
8 | Cc1cc(-c2cccc(S(C)(=O)=O)c2)c(Cl)cc1C1=C(O)C2(CCCN(C(=O)/C=C\c3cccc(C#N)c3)C2)OC1=O (stereo not shown) [Example 124] | ≤ 0.1
9 | CCOC1CCCCC12OC(=O)C(c1cc(C)c(-c3ccc(Cl)cc3)cc1Cl)=C2O (single isomer, unassigned) [Example 82] | ≤ 0.1
10 | CCS(=O)(=O)Nc1cccc(-c2cc(C)c(C3=C(O)C4(CCCCC4)OC3=O)cc2Cl)c1 [Example 190] | ≤ 0.1
